Values belong to the compound of their own block, whether it stands above or below them.
System: 435261-313-R-J1-PDC tumor spheroid viability
Assay: Anticancer human tumor 435261-313-R-J1-PDC patient-derived colon adenocarcinoma cell line growth inhibition [PI3K]
Settings: spheroids with HUVEC and MSC; for IC50: curve of first compound; for viability, T/C: stronger effect = lower value
In short: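 Viability of mixed-cell spheroids was determined after exposure to pairwise combinations, one partner being inavolisib, alpelisib, duvelisib or copanlisib. Highest tested concentration matched clinical Cmax where known and 10 microM where not, descending in half-log steps.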

[1] = second compound 0.00316 µM, first compound 0.0316 µM
[2] = second compound 0.00316 µM, first compound 0.1 µM
[3] = second compound 0.00316 µM, first compound 0.316 µM
[4] = second compound 0.00316 µM, first compound 1 µM
[5] = second compound 0.00316 µM, first compound 3.16 µM
[6] = second compound 0.00316 µM, first compound 10 µM
[7] = second compound 0.01 µM, first compound 0.0316 µM
[8] = second compound 0.01 µM, first compound 0.1 µM
[9] = second compound 0.01 µM, first compound 0.316 µM
[10] = second compound 0.01 µM, first compound 1 µM
[11] = second compound 0.01 µM, first compound 3.16 µM
[12] = second compound 0.01 µM, first compound 10 µM
[13] = second compound 0.0316 µM, first compound 0.0316 µM
[14] = second compound 0.0316 µM, first compound 0.1 µM
[15] = second compound 0.0316 µM, first compound 0.316 µM
[16] = second compound 0.0316 µM, first compound 1 µM
[17] = second compound 0.0316 µM, first compound 3.16 µM
[18] = second compound 0.0316 µM, first compound 10 µM
[19] = second compound 0.1 µM, first compound 0.0316 µM
[20] = second compound 0.1 µM, first compound 0.1 µM
[21] = second compound 0.1 µM, first compound 0.316 µM
[22] = second compound 0.1 µM, first compound 1 µM
[23] = second compound 0.1 µM, first compound 3.16 µM
[24] = second compound 0.1 µM, first compound 10 µM
[25] = second compound 0.316 µM, first compound 0.0316 µM
[26] = second compound 0.316 µM, first compound 0.1 µM
[27] = second compound 0.316 µM, first compound 0.316 µM
[28] = second compound 0.316 µM, first compound 1 µM
[29] = second compound 0.316 µM, first compound 3.16 µM
[30] = second compound 0.316 µM, first compound 10 µM
[31] = second compound 1 µM, first compound 0.0316 µM
[32] = second compound 1 µM, first compound 0.1 µM
[33] = second compound 1 µM, first compound 0.316 µM
[34] = second compound 1 µM, first compound 1 µM
[35] = second compound 1 µM, first compound 3.16 µM
[36] = second compound 1 µM, first compound 10 µM
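Also: spheroids exposed to compounds for 7 days.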

IC50 (second compound 0.00316 µM): > 10000 nM | IC50 (second compound 0.01 µM): > 10000 nM | IC50 (second compound 0.0316 µM): > 10000 nM | IC50 (second compound 0.1 µM): < 31.6 nM | IC50 (second compound 0.316 µM): < 31.6 nM | IC50 (second compound 1 µM): < 31.6 nM
SMILES: CC(Cn1ccc(-c2ccc(C#N)c(Cl)c2)n1)NC(=O)c1cc(C(C)O)[nH]n1 (centres undefined) + CC(Nc1ccc2c(c1)OCCn1cc(N3C(=O)OCC3C(F)F)nc1-2)C(N)=O
viability, T/C [1]: 75.6% | viability, T/C [2]: 79.1% | viability, T/C [3]: 93.8% | viability, T/C [4]: 106% | viability, T/C [5]: 94.3% | viability, T/C [6]: 106% | viability, T/C [7]: 53.1% | viability, T/C [8]: 90.6% | viability, T/C [9]: 105% | viability, T/C [10]: 106% | viability, T/C [11]: 82.4% | viability, T/C [12]: 95.1% | viability, T/C [13]: 74.5% | viability, T/C [14]: 78.5% | viability, T/C [15]: 93% | viability, T/C [16]: 77.4% | viability, T/C [17]: 95.9% | viability, T/C [18]: 86.2% | viability, T/C [19]: 41.5% | viability, T/C [20]: 54.3% | viability, T/C [21]: 40.1% | viability, T/C [22]: 44% | viability, T/C [23]: 46.2% | viability, T/C [24]: 53.8% | viability, T/C [25]: 28.6% | viability, T/C [26]: 24.6% | viability, T/C [27]: 20.2% | viability, T/C [28]: 21.7% | viability, T/C [29]: 25.9% | viability, T/C [30]: 27.5% | viability, T/C [31]: 17.1% | viability, T/C [32]: 17% | viability, T/C [33]: 18.3% | viability, T/C [34]: 19.2% | viability, T/C [35]: 16.9% | viability, T/C [36]: 20.5%

IC50 (second compound 0.00316 µM): 1200 nM | IC50 (second compound 0.01 µM): 1040 nM | IC50 (second compound 0.0316 µM): < 31.6 nM | IC50 (second compound 0.1 µM): < 31.6 nM | IC50 (second compound 0.316 µM): < 31.6 nM | IC50 (second compound 1 µM): < 31.6 nM
SMILES: CC1(C)CCC(Nc2ncc(C(F)(F)F)c(-c3c[nH]c4c(P(C)(C)=O)c(C#N)ccc34)n2)CN1 (centres undefined) + CC(Nc1ccc2c(c1)OCCn1cc(N3C(=O)OCC3C(F)F)nc1-2)C(N)=O
viability, T/C [1]: 46.7% | viability, T/C [2]: 58.8% | viability, T/C [3]: 43.8% | viability, T/C [4]: 58.8% | viability, T/C [5]: 39.4% | viability, T/C [6]: 0.93% | viability, T/C [7]: 52% | viability, T/C [8]: 53.4% | viability, T/C [9]: 48% | viability, T/C [10]: 51.3% | viability, T/C [11]: 38.6% | viability, T/C [12]: 0.98% | viability, T/C [13]: 44.4% | viability, T/C [14]: 47.9% | viability, T/C [15]: 38.8% | viability, T/C [16]: 40.8% | viability, T/C [17]: 33.4% | viability, T/C [18]: 0.99% | viability, T/C [19]: 30% | viability, T/C [20]: 31.6% | viability, T/C [21]: 27.2% | viability, T/C [22]: 30.2% | viability, T/C [23]: 24.5% | viability, T/C [24]: 0.45% | viability, T/C [25]: 24.2% | viability, T/C [26]: 22.8% | viability, T/C [27]: 20.1% | viability, T/C [28]: 20.2% | viability, T/C [29]: 15% | viability, T/C [30]: 0.63% | viability, T/C [31]: 20.9% | viability, T/C [32]: 15% | viability, T/C [33]: 17% | viability, T/C [34]: 18.8% | viability, T/C [35]: 10.4% | viability, T/C [36]: 0.26%

Source: PubChem BioAssay AID1963976 (Molecular Pharmacology Branch, DTP, NCI, 2024)
